≈ marks a conversion by molar mass, not a printed value.
conditions: buffer; pH 7.4; 200.0 µM

Question: With `NC(=O)CC[C@H](NC(=O)c1ccc(F)cc1)C(=O)OCC(=O)NCc1ccc2c(c1)OCO2` as the compound, how does the solubility kinetic read?
Answer: 1.2 µg/mL (≈ 2.61 µM)

Question: Which solubility kinetic does the source give for `O=C(COC(=O)c1cccc(O)c1)NCc1ccc2c(c1)OCO2` here?
Answer: > 49.4 µg/mL

Question: Which solubility kinetic does the source give for `NC(CSCc1cccc(Br)c1)C(=O)O` (stereo not drawn) here?
Answer: > 43.5 µg/mL

Question: With `O=C(COc1cccc2c1CCNC2=O)Nc1ccc(F)cc1` as the compound, how does the solubility kinetic read?
Answer: > 47.1 µg/mL

Question: For `O=C(O)Cn1c(Cc2ccccc2)nc2ccccc21`, which solubility kinetic is on record?
Answer: 22.4 µg/mL (≈ 84.1 µM)

Question: With `COc1ccc(CNC(=O)Nc2cccc(Cl)c2)cc1` as the compound, how does the solubility kinetic read?
Answer: 1.1 µg/mL (≈ 3.78 µM)

Question: For `O=C(NCCCCNC(=O)c1ccccn1)c1ccccn1`, which solubility kinetic is on record?
Answer: > 44.8 µg/mL

Question: For `O=C(Nc1ccc2c(c1)OCO2)C(=O)c1c[nH]c2ccccc12`, which solubility kinetic is on record?
Answer: 0.7 µg/mL (≈ 2.27 µM)

Question: Which solubility kinetic does the source give for `CN(C)CCOC(C)(c1ccccc1)c1ccccn1.O=C(O)CCC(=O)O` (stereo not drawn) here?
Answer: > 58.3 µg/mL

Question: For `Cc1ccc(NC(=O)CSc2nnc(/N=C/N(C)C)s2)cc1`, which solubility kinetic is on record?
Answer: > 50.3 µg/mL

Question: With `O=C(O)c1ccccc1CSc1nc2ccccc2[nH]1` as the compound, how does the solubility kinetic read?
Answer: > 42.6 µg/mL

Question: Which solubility kinetic does the source give for `CCCN(CCC)C(=O)Cc1ccc(F)cc1` here?
Answer: 28 µg/mL (≈ 118 µM)

Question: With `Brc1ccc(-c2csc(N3CCOCC3)n2)cc1` as the compound, how does the solubility kinetic read?
Answer: < 0.3 µg/mL

Question: With `Cc1ccc(NCCC(=O)c2cccs2)cc1` as the compound, how does the solubility kinetic read?
Answer: 17.9 µg/mL (≈ 73 µM)

Question: For `CN(CCC(=O)c1ccccc1)CCC(=O)c1ccccc1`, which solubility kinetic is on record?
Answer: 42.3 µg/mL (≈ 143 µM)

Question: For `Cc1cc(C)nc(SCc2ccc([N+](=O)[O-])cc2)n1`, which solubility kinetic is on record?
Answer: 6.1 µg/mL (≈ 22.2 µM)

Question: For `O=C(c1ccc([N+](=O)[O-])cc1)N1CCC(Cc2ccccc2)CC1`, which solubility kinetic is on record?
Answer: 27.5 µg/mL (≈ 84.8 µM)

Question: With `CC(=O)c1cccc(NC(=O)c2nc(-c3ccccc3)oc2C)c1` as the compound, how does the solubility kinetic read?
Answer: 12.1 µg/mL (≈ 37.8 µM)

Question: For `CC(C)(C)c1ccc(Oc2ccc(N)cn2)cc1`, which solubility kinetic is on record?
Answer: > 36.3 µg/mL

Question: Which solubility kinetic does the source give for `COc1cccc(N2CCN(CC(=O)NC(C)c3ccccc3)CC2)c1` (stereo not drawn) here?
Answer: 45 µg/mL (≈ 127 µM)

Question: Which solubility kinetic does the source give for `Cc1nc2ccc(Br)cc2c(-c2ccccc2)c1C(=O)O` here?
Answer: > 51.3 µg/mL

Question: Which solubility kinetic does the source give for `Cc1ccc(S(=O)(=O)N(C)C)cc1NC(=O)c1cc(-c2ccncc2)nc2ccccc12` here?
Answer: 10 µg/mL (≈ 22.4 µM)

Question: With `CC(C)c1ccc(NC(=O)NCc2cccnc2)cc1` as the compound, how does the solubility kinetic read?
Answer: > 40.4 µg/mL

Question: Which solubility kinetic does the source give for `O=C(NCc1ccccc1Cl)c1ccncc1` here?
Answer: > 37 µg/mL

Question: With `C=CCn1c(SCC(=O)Nc2cc(C)on2)nnc1-c1ccccc1OC` as the compound, how does the solubility kinetic read?
Answer: > 57.8 µg/mL

Question: Which solubility kinetic does the source give for `COC(=O)c1sc(NC(=O)/C=C/c2ccccc2Cl)nc1C` here?
Answer: 1.5 µg/mL (≈ 4.45 µM)

Question: Which solubility kinetic does the source give for `CC(C)COP(=O)(c1ccc(N(C)C)cc1)C(O)c1cccnc1` (stereo not drawn) here?
Answer: 49.6 µg/mL (≈ 142 µM)

Question: For `CN1CC(=O)N(CC(=O)Nc2ccc(OCc3ccccc3)cc2)C1=O`, which solubility kinetic is on record?
Answer: 45.7 µg/mL (≈ 129 µM)

Question: For `O=C(Nc1ccc(S(=O)(=O)N2CCOCC2)cc1)c1cccnc1`, which solubility kinetic is on record?
Answer: > 52.1 µg/mL

Question: Which solubility kinetic does the source give for `O=C(Cn1c(C(=O)O)cc2ccccc21)c1ccccc1` here?
Answer: 39.2 µg/mL (≈ 140 µM)

Question: For `O=C(COC(=O)c1ccccc1Br)NC1CCCCCCC1`, which solubility kinetic is on record?
Answer: 25.1 µg/mL (≈ 68.2 µM)

Question: For `COc1cc2c(cc1OC)-c1cc(Nc3ccccc3C)nc(=O)n1CC2`, which solubility kinetic is on record?
Answer: 49.3 µg/mL (≈ 136 µM)

Question: For `Cc1cccc(NC(=O)COc2cccc3c2CCN(C)C3=O)c1`, which solubility kinetic is on record?
Answer: 41.9 µg/mL (≈ 129 µM)

Question: Which solubility kinetic does the source give for `O=S(=O)(c1ccc2c(c1)CCC2)N1CCNCC1` here?
Answer: > 40 µg/mL

Question: Which solubility kinetic does the source give for `O=C(O)c1ccccc1C(=O)Nc1nc(-c2ccc3ccccc3c2)cs1` here?
Answer: > 56.2 µg/mL

Question: With `CC1(C(=O)O)CCC(C(=O)N2CCCCC2)C1(C)C` (stereo not drawn) as the compound, how does the solubility kinetic read?
Answer: > 40.1 µg/mL

Question: Which solubility kinetic does the source give for `COc1ccc(CNCCc2ccc(Cl)cc2Cl)cc1` here?
Answer: 2.1 µg/mL (≈ 6.77 µM)

Question: With `Cc1ccc(CNC(=O)CCSCc2ccc(C)cc2)cc1` as the compound, how does the solubility kinetic read?
Answer: 14.3 µg/mL (≈ 45.6 µM)

Question: For `CCn1ccnc1CN(C)Cc1nc(-c2ccccc2)no1`, which solubility kinetic is on record?
Answer: 31.7 µg/mL (≈ 107 µM)

Question: For `CC1(C(=O)O)CCC(C(=O)Nc2ccc(Cl)c(Cl)c2)C1(C)C` (stereo not drawn), which solubility kinetic is on record?
Answer: > 51.6 µg/mL

Question: Which solubility kinetic does the source give for `CC(=O)c1sc(C(C)(C)C)cc1NC(=O)CCC(=O)O` here?
Answer: > 44.6 µg/mL

Question: Which solubility kinetic does the source give for `O=C(NCCCn1ccnc1)Nc1ccc2c(c1)OCO2` here?
Answer: > 43.2 µg/mL

Question: Which solubility kinetic does the source give for `COC(=O)c1ccc(COc2ccc(C)cc2[N+](=O)[O-])o1` here?
Answer: 3.3 µg/mL (≈ 11.3 µM)

Question: With `COc1ccc(CNCc2cccn2C)cc1.Cl` as the compound, how does the solubility kinetic read?
Answer: > 40 µg/mL

Question: For `Cc1ccc(C(=O)OCC(=O)c2ccc[nH]2)s1`, which solubility kinetic is on record?
Answer: > 37.4 µg/mL

Question: With `Cn1cc(-c2ccccc2C(N)=O)c(=O)c2cc(Cl)ccc21` as the compound, how does the solubility kinetic read?
Answer: 46.3 µg/mL (≈ 148 µM)

Question: With `O=C(CN1CCCC1)Nc1ccc([N+](=O)[O-])cc1Cl` as the compound, how does the solubility kinetic read?
Answer: 36.2 µg/mL (≈ 128 µM)

Question: With `CCOC(=O)N1CCN(C(=O)/C=C/c2ccc(C(C)(C)C)cc2)CC1` as the compound, how does the solubility kinetic read?
Answer: 22.9 µg/mL (≈ 66.5 µM)

From PubChem BioAssay AID1996
